# Measurements taken from PMC4015282, “Transcriptional comparison of the filamentous fungus Neurospora crassa growing on three major monosaccharides D-glucose, D-xylose and L-arabinose” (Biotechnology for Biofuels, 2014).
# How the values were obtained:
# Assay type in all cases: cell-based
# Conditions in all cases: 3 mM sugar; labelled compound
# [1] = biological target: T1, GLT-1 (NCU01633) (Neurospora crassa, UniProt Q1K4S3); assay: radiolabelled sugar uptake in recombinant yeast, […] min; growth complementation
# T1 construct: cDNA cloned in pRS426 shuttle vector (PGK1 promoter, GFP ORF, CYC1 terminator)
# T1 sequence (Q1K4S3 1-532): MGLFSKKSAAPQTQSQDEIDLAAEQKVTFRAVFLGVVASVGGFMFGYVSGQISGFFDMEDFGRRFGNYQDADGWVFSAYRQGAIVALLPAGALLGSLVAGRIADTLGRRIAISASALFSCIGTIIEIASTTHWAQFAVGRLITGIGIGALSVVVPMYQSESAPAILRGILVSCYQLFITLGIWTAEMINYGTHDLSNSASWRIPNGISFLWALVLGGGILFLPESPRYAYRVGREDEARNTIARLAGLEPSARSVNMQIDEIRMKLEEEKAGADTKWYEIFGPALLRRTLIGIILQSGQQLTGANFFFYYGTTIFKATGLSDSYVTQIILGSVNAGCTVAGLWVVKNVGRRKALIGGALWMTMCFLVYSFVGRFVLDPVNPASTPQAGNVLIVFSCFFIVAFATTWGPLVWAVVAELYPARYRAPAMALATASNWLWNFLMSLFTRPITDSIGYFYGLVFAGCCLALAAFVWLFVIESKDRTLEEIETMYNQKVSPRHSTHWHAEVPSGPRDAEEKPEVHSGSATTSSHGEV
# [2] = biological target: T2, LAT-1 (NCU02188) (Neurospora crassa, UniProt Q7S4D2); assay: as above
# T2 construct: expressed from pRS426-type vector in hexose-transporter-null S. cerevisiae EBY.VW4000
# T2 sequence (Q7S4D2 1-518): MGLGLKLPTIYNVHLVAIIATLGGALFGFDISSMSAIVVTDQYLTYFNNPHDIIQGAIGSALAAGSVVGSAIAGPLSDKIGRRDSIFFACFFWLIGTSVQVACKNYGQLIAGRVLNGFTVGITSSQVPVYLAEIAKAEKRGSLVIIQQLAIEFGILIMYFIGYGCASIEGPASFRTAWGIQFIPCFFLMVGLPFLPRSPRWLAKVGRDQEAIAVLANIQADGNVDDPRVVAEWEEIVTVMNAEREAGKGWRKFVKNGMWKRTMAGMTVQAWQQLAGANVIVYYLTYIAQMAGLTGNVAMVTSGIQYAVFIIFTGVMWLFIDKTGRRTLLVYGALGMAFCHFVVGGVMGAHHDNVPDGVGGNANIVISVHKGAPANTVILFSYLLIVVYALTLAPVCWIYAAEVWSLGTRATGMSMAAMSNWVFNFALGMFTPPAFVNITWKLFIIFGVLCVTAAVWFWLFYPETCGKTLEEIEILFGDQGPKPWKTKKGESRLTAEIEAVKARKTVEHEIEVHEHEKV
# [3] = biological target: T1, GLT-1 (NCU01633); assay: radiolabelled sugar uptake in recombinant yeast, […] min
# [4] = biological target: T2, LAT-1 (NCU02188); assay: as above
compound,measurement,setting,value
OC[C@H]1OC(O)[C@H](O)[C@@H](O)[C@@H]1O (stereo partly drawn) [D-glucose],"radiolabelled sugar uptake in recombinant yeast, 2 min; growth complementation",[1],D-glucose uptake was two orders of magnitude higher compared to that of D-xylose
same,"radiolabelled sugar uptake in recombinant yeast, 2 min; growth complementation",[2],"does complement growth of EBY.VW4000 strain on D-glucose, indicating this protein can transport D-glucose"
OC1OC[C@@H](O)[C@H](O)[C@H]1O (stereo partly drawn) [D-xylose],"radiolabelled sugar uptake in recombinant yeast, 2 min",[3],D-glucose uptake was two orders of magnitude higher compared to that of D-xylose
OC1OC[C@H](O)[C@H](O)[C@H]1O (stereo partly drawn) [L-arabinose],"radiolabelled sugar uptake in recombinant yeast, 2 min",[4],the L-arabinose uptake rate was much higher than that of D-glucose
